US9206445B2, “Biocatalysts with enhanced inhibitor tolerance” (priority 2013, dated 2015)
Converted amounts (≈) assume the structure as drawn.

Tested on: Z. mobilis 8b
Assay: Furfural MIC for growth of Z. mobilis (plate screening levels given as MIC multiples)
Format: cell-based
Conditions: Zymomonas mobilis, 24 h, read-out: MIC 1× (minimum concentration of inhibitor needed for complete inhibition of growth)
Method: Both Z. mobilis 8b and 8b knockout library cultures were revived from glycerol stocks in 20 mL MRMG0.75×0.25 (10 g/L yeast extract, 2 g/L KH2PO4 and 1 g/L MgSO4.7H2O, 7.5 g/L glucose and 2.5 g/L xylose) and also containing […] spectinomycin for 1.5 hours at 35° C., 125 rpm. Cells were centrifuged and resuspended to a final OD600 nm of 0.025 in a 100 mL culture, and grown for an additional 3-4 generations at 35° C. in 125 mL Erlenmeyer flasks with foam enclosures, 125 rpm (about 6 hours). Cells were initially screened on MRMGS (5% w/v glucose) plates containing 0, […], 5, or 7.5 g/L of furfural, equivalent to MICs of 0.75×, 1× or 1.5×. MIC 1× is the minimum (lowest) concentration of inhibitor needed for complete inhibition of growth (RMG2) over a 24-hour period. Approximately 500, 1000 and 2000 colonies were plated in triplicates. Furfural levels were also tested at 0.7, 1.5, 3 or 4 g/L in glucose.

`O=Cc1ccco1` [furfural] was tested, and the MIC was 5000 µg/mL (≈ 52 mM).
